Measurements as given in patent US12582116B2, “Agricultural formulations” (Dow Global Technologies LLC, priority 2020, dated 2026).

Experiments:
[1] = Mutual solubility of Formula 1 solvent and water (Example 1); type: physicochemical; settings: for solubility in water: solvent dissolved in water
Protocol: The solubility of Formula 1 Solvent A in water is measured to be 0.67 weight percent. The solubility of water in Formula 1 Solvent A is measured to be 1.44 weight percent.

[2] = Solubility of agricultural active ingredients in solvent by visual observation, Formula 1 Solvent A vs aromatic hydrocarbon (Example 2)
Protocol: The aromatic hydrocarbon solvent used is Aromatic 150 from Exxon Mobil Corporation (“Aromatic Hydrocarbon”). The agricultural active ingredients used are bifenthrin, tebuconazole, nitrapyrin, and dicamba acid.
(§1) The solubilities are determined by visual observation using the following method. Four milliliter vials are charged with agricultural active ingredient (10 to 50 wt %) and the specified solvent (90 to 50 wt %). The vials are capped and taped to seal with electric tape. The vials are secured in a plastic container and shaken on a laboratory shaker for 12 hours at ambient laboratory temperature and humidity. After 12 hours, each sample set is evaluated for solubility of the agricultural active ingredient solid. Complete solubilization of the agricultural active ingredient is determined to be achieved if a homogeneous clear solution is observed. The formulations made with Formula 1 Solvent A represent some embodiments of agricultural formulations of the present invention.

[3] = Solubility of agricultural active ingredients in solvent by visual observation, Formula 1 Solvent A vs N,N-dialkyl fatty amide (Example 3)
Protocol: The N,N-dialkyl fatty amide solvent used is HALLCOMID™ M-10’, which is a N,N-dimethyldecanamide from Stepan Company (“N,N-dialkyl Fatty Amide”). The agricultural active ingredients used are bifenthrin, tebuconazole, nitrapyrin, and dicamba acid.
as §1

[4] = in Aromatic Hydrocarbon (Aromatic 150, Exxon Mobil), shaken 12 hours at ambient laboratory temperature, visual observation, Table 2
[5] = in Formula 1 Solvent A (ethyl 2-furoate, Ethyl 408), shaken 12 hours at ambient laboratory temperature, visual observation, Table 2
[6] = in Formula 1 Solvent A (ethyl 2-furoate, Ethyl 408), shaken 12 hours at ambient laboratory temperature, visual observation, Table 3
[7] = in N,N-dialkyl Fatty Amide (HALLCOMID M-10, N,N-dimethyldecanamide), shaken 12 hours at ambient laboratory temperature, visual observation, Table 3

Molecule: 5-methyl-2-furoate
- solubility in water [1]: 0.67 weight percent

Molecule: Cc1c(COC(=O)[C@@H]2[C@H](/C=C(\Cl)C(F)(F)F)C2(C)C)cccc1-c1ccccc1 (racemic) [Bifenthrin, bifenthrin]
- Agricultural Active Ingredient Solubility [2, 4]: 40 wt %
- Agricultural Active Ingredient Solubility [2, 5]: 30 wt %
- Agricultural Active Ingredient Solubility [3, 6]: 30 wt %
- Agricultural Active Ingredient Solubility [3, 7]: 30 wt %

Molecule: COc1c(Cl)ccc(Cl)c1C(=O)O [Dicamba Acid, dicamba acid]
- Agricultural Active Ingredient Solubility [2, 4]: <10 wt %
- Agricultural Active Ingredient Solubility [2, 5]: 40 wt %
- Agricultural Active Ingredient Solubility [3, 6]: 40 wt %
- Agricultural Active Ingredient Solubility [3, 7]: <10 wt %

Molecule: CCOC(=O)c1ccco1 [Formula 1 Solvent A, ethyl 2-furoate]
- solubility in water [1]: 0.67 weight percent
- solubility of water in Formula 1 Solvent A ([1]; water dissolved in the solvent): 1.44 weight percent

Molecule: Clc1cccc(C(Cl)(Cl)Cl)n1 [Nitrapyrin, nitrapyrin]
- Agricultural Active Ingredient Solubility [2]: >50 wt %
- Agricultural Active Ingredient Solubility [3]: >50 wt %

Molecule: CC(C)(C)C(O)(CCc1ccc(Cl)cc1)Cn1cncn1 (centres unmarked) [Tebuconazole, tebuconazole]
- Agricultural Active Ingredient Solubility [2]: 20 wt %
- Agricultural Active Ingredient Solubility [2, 4]: <10 wt %
- Agricultural Active Ingredient Solubility [3, 6]: 20 wt %
- Agricultural Active Ingredient Solubility [3, 7]: 30 wt %
